In US20130274212A1, “Sesterterpene Compounds and Use Thereof” (SNU R&DB FOUNDATION, priority 2010, published 2013):

Assays:
[1] = test system: BKS.Cg-+Lepr^db/+Lepr^db (db/db) mice; test: Anti-diabetic efficacy in db/db mice (blood sugar, insulin, adiponectin, glucose and insulin tolerance); format: in vivo, mouse
Method: In the present example, in order to verify efficacy to prevent and treat diabetes of the compound of Chemical Formula I (CMDD-X or Compound 7) according to the present invention, BKS.Cg-+Lepr^db/+Lepr^db (db/db) mice as an insulin-independent diabetes animal model and general mice (C57BL/6J) fed with high-fat feedstuff were used. After the disease animal model was orally administered with CMDD-X, the diabetes-related index between the administered group and the control group was measured to verify the efficacy as an agent for preventing and treating diabetes. BKS.Cg-+Lepr^db/+Lepr^db (db/db) mice (male, 7-week old) as type 2 diabetes animal model were purchased and used. The experiment animals were adapted to a housing environment for 1 week while pellet type general diet (lab-chow) was supplied, and then divided into 2 groups of 18 mice each by randomized block design to have similar blood sugar and body weight. For general mice fed with high-fat feedstuff as another animal model, 6-week old C57BL/6J mice was purchased, and then were adapted to a lap environment for 2 weeks. After that, high-fat diet containing 35% fat diet (weight ratio, Research Diets. Co. Ltd.) was supplied for 14 weeks. The efficacy to prevent and treat diabetes by CMDD-X was observed through oral administration. A mouse fed with only 0.5% carboxylmethyl cellulose, as a medicine delivery, was used as a negative control group. The medicine was orally administered to the db/db mice for 4 weeks, a total of 28 days, and to the C57BL/6J mice, which was fed with the high-fat diet, for the last 6 weeks, at a dose of 10 mg/kg/day. The experiment animals after administration were fasted for 15 hours before autopsy, and then the blood taken from the orbital venous treated with heparin. […] The other organ tissues were rapidly cooled in the liquid nitrogen immediately after removal thereof, and kept at −70° C. and then analyzed. T-test was conducted with respect to the control group and the administered group, a significant difference of less than 5% (P<0.05) was determined as having have a statistical significance.
In order to measure the blood sugar reduction efficacy of the compound of Chemical Formula I (CMDD-X or Compound 7), the blood was collected through tail veins of the db/db mice before experiment ending, after feeding, and after stomach was empty for 15 hours, and the blood sugar was measured by using a glucose oxidase method. […]
The insulin and adiponectin concentrations of the plasma, obtained from the orbital venous of the db/db mice orally administered with CMDD-X (or Compound 7) for 4 weeks, were measured by using an Elisa Kit. […]

LXR = test: GAL-hLXRa or GAL-hLXRB luciferase reporter antagonist assay in CV-1 cells; format: cell-based, human; details: LXR agonist T0901517 500 nM
Method: (§1) Animal cell line CV-1 was used in transfection search. Cells were cultured in DMEM medium within a cell incubator containing 5% carbon dioxide at 37° C. The medium contained 10% fetal bovine serum (FBS), 100 U/ml penicillin, and 100 μg/ml streptomycin. On day 1 of the experiment, CV1 cells were seeded in a 96-well plate at 5,000 cells/well. On day 2, the seeded cells were transfected with plasmid expressing GAL-hLXRa or GAL-hLXRB, plasmid expressing luciferase gene, and plasmid expressing β-galactosidase, by using a transfection reagent, Superfect (QIAGEN). After 16 hours, the transfected cells were treated with compounds of Chemical Formula I dissolved in dimethylsulfoxide (DMSO) by the concentrations (here, the final concentration of the LXR agonist, T0901517, was 500 nM). Cells treated with dimethylsulfoxide having the final concentration of 1% were used as a negative control group. After culturing for 24 hours, the cells were lysed by using a lysis buffer, and luciferin was added thereto to measure the luciferase activity by a luminometer. After addition of an ONPG reagent, β-galactosidase activity was measured by an ELISA reader. The measured luciferase value was corrected by the activity value of β-galactosidase. […] Accordingly, it was verified that the compounds of Chemical Formula I are antagonist compounds selective to LXR.

[2] = test system: C57BL/6 mice administered with MPTP; test: MPTP-induced Parkinson's disease mice, Rotarod exercise capacity; format: in vivo, mouse; details: oral 5 mg/kg once per day for 5 days before MPTP 25 mg/kg; measured after 3 days
Description: In the present example, in order to verify efficacy to prevent and treat Parkinson's Disease of the compound of Chemical Formula I according to the present invention in the Parkinson's Disease as one of neurodegenerative diseases, mice administered with 1-methyl-4-phenyl-1,2,3,6-tetrahydropyridine (MPTP) were used. The efficacy to prevent and treat the Parkinson's Disease was verified by administering the compound of Chemical Formula I (CMDD-X or Compound 7) to a Parkinson's Disease-induced disease model and then measuring exercise capacity of the mice. C57BL/6 mice (male, 12-week old) were used. The mice were adapted to a housing environment for 1 week while pellet type general diet was supplied, and then divided into 3 groups of 5 mice each to have similar body weights. Before MPTP administration, the compound CMDD-X was orally administered at a concentration of 5 mg/kg. After 3 hours, probenecid as MPTP efflux inhibitor was intraperitoneally administered to the mice at a concentration of 250 mg/kg, and, after 2 hours, 25 mg/kg of MPTP was intraperitoneally administered. Administration was conducted once per one day for a total of 5 days, and, after 3 days, exercise capacity of the mice was measured by using the Rotarod. […]

[3] = test system: Gyk, LXR, SREBP1c, SCD1, PPARa, UCP gene expression; test: Gene expression analysis (micro-array, Q-RT PCR) in diabetic mice fed with compound; format: in vivo, mouse
Method: Gene expression analysis was conducted to establish the mechanism. The gene analysis was conducted by using micro-array and the Q-RT PCR method. […] Expressions of PPARa and UCP, which are genes for burning the newly generated fat to release heat, were increased (FIG. 13).

db/db mice = test: Renal failure as diabetes complication: blood urea nitrogen in db/db mice; format: in vivo, mouse; details: oral 10 mg/kg/day, 4 weeks
Method: In order to verify the efficacy to treat renal failure as a diabetes complication, a db/db disease animal model was used. 8-week old db/db mice were orally administered with the compound of Chemical Formula I (CMDD-X or Compound 7) at a dose of 10 mg/kg/day for 4 weeks, and then the blood urea nitrogen as a marker to treat renal failure was measured.

Nurr1 = Nurr1 (Mus musculus, UniProt Q06219); test: GAL-mNurr1 luciferase reporter transfection assay in CV-1 cells; format: cell-based; details: GAL-mNurr1, luciferase corrected by β-galactosidase, 24 hours
Chain of Nurr1 (Q06219 360-598 limits assumed): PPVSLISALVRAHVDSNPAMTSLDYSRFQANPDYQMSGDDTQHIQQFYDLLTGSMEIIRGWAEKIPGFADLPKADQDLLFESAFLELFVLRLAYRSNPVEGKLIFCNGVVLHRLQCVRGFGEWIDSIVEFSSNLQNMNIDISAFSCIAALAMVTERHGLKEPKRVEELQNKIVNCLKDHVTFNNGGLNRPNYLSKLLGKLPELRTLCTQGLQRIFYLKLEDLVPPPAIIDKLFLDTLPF
Method: as §1, with “GAL-mNurr1,” for “GAL-hLXRa or GAL-hLXRB,”, “β-galactosidase” for “β-galactosidase,”, “concentrations.” for “concentrations (here, the final concentration of the LXR agonist, T0901517, was 500 nM).”, “were” for “are antagonist”, “Nurr1.” for “LXR.”

Compound	insulin tolerance test: final blood sugar decreased as compared with the control group ([1]; insulin 3 unit/kg) [%]	blood sugar after food intake, lower than that of the control group ([1]; oral 10 mg/kg/day, 4 weeks) [%]	blood sugar at the time of an empty stomach, reduction ([1]; oral 10 mg/kg/day, 4 weeks, fasted 15 hours) [%]	blood insulin concentration, relative to that of the control group ([1]; oral 10 mg/kg/day, 4 weeks, plasma, Elisa Kit) [%]	IC50 (LXR) [nM]	exercise capacity (Rotarod) [2]	expressions of LXR, SREBP1c, and SCD1 [3]	expression of Gyk (glycolysis biomarker), increase ([3]; micro-array and Q-RT PCR) [times]	efficacy on renal failure (blood urea nitrogen) (db/db mice)	EC50 (Nurr1) [nM]
CC(C)=CCC/C(C)=C/[C@@H]1CC(C)=C[C@]2(C=C(CF)[C@H]3CC(=O)C(C)=C[C@H]3O2)O1 [Compound 7]	58	27	28	73	11	the same results as CMDD-X	very increased	1.3	somewhat superior efficacy as compared with CMDD-X	32
CC(C)=CCC/C(C)=C/[C@@H]1CC(C)=C[C@]2(C=C(COS(=O)(=O)c3ccc(C)cc3)[C@H]3CC(=O)C(C)=C[C@H]3O2)O1 [Compound 1]					21					28
C#CCOCC1=C[C@]2(C=C(C)C[C@@H](/C=C(\C)CCC=C(C)C)O2)O[C@@H]2C=C(C)C(=O)C[C@H]12 [Compound 8]					85					25
CC(C)=CCC/C(C)=C/[C@@H]1CC(C)=C[C@]2(C=C(C=O)[C@H]3CC(=O)C(C)=C[C@H]3O2)O1 [Compound 4]					5					7
